Where a chain is given by its changes, count along the chain named.
Tests used:
Test in all cases: E. coli hemG growth inhibition by herbicide, AtPPO1 variant
Type in all cases: cell-based
Details in all cases: read-out: percentage growth inhibition
AtPPO1 D448N = biological target: T1, AtPPO1 D448N (Arabidopsis thaliana, UniProt P55826, D448N)
T1 construct: expressed in transfected cells; host or cells: E. coli BL21(DE3) hemG, pET24a plasmid
T1 sequence (P55826 35-537 D448N): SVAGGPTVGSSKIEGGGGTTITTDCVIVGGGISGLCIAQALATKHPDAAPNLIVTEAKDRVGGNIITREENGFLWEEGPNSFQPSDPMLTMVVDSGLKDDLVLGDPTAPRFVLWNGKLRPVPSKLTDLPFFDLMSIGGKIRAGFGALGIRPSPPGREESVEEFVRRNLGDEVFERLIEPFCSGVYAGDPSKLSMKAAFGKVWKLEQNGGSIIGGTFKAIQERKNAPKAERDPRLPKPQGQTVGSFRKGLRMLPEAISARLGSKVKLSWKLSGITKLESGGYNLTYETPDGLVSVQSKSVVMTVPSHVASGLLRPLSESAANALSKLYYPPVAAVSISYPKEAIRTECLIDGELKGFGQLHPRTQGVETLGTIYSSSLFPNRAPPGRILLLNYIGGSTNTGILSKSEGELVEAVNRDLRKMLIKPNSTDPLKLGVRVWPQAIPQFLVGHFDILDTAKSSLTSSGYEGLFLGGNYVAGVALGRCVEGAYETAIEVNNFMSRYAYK
Outline: (§1)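 E. coli BL21(DE3) ΔhemG::CmR complemented by AtPPO1 variants (pET24a, T7, E. coli codon-optimised); TB + 0.1 mM IPTG, 1:100 inoculum; 6.25 ppm herbicide 0/E or 0.78 ppm herbicide B vs DMSO; 24 h, 37° C, 250 rpm; OD600 at 24 h → % growth inhibition.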

AtPPO1 G404A = biological target: T2, AtPPO1 G404A (Arabidopsis thaliana, UniProt P55826, G404A)
T2 construct: expressed in transfected cells; host or cells: E. coli BL21(DE3) hemG (pET24a, T7 promoter)
T2 sequence (P55826 35-537 G404A): T1 sequence (P55826 35-537 D448N) with G370A, N414D
Outline: as §1

AtPPO1 Q272T = biological target: T3, AtPPO1 Q272T (Arabidopsis thaliana, UniProt P55826, Q272T)
T3 construct: expressed in transfected cells; host or cells: E. coli BL21(DE3) hemG (hemG replaced by CmR), pET24a plasmid
T3 sequence (P55826 35-537 Q272T): T1 sequence (P55826 35-537 D448N) with Q238T, N414D
Outline: as §1

AtPPO1 V511N = biological target: T4, AtPPO1 V511N (Arabidopsis thaliana, UniProt P55826, V511N)
T4 construct: expressed in transfected cells; host or cells: E. coli BL21(DE3) hemG, pET24a plasmid
T4 sequence (P55826 35-537 V511N): T1 sequence (P55826 35-537 D448N) with N414D, V477N
Outline: as §1

What does the source list for `CCOC(=O)[C@]1(C)CC(c2cc(-n3c(=O)n(C)c(=S)n(C)c3=O)c(F)cc2Cl)=NO1` [Herbicide D, ethyl (5S)-3-[2-chloro-5-(3,5-dimethyl-2,6-dioxo-4-thioxo-1,3,5-triazinan-1-yl)-4-fluoro-phenyl]-5-methyl-4H-isoxazole-5-carboxylate]?
inhibition at 6.25 ppm (AtPPO1 D448N): 38%; inhibition at 6.25 ppm (AtPPO1 G404A): 4%; inhibition at 6.25 ppm (AtPPO1 Q272T): 23%; inhibition at 6.25 ppm (AtPPO1 V511N): 22%

`C#CCN1C(=O)C(F)(F)Oc2cc(F)c(-n3c(=O)n(C)c(=S)n(C)c3=O)cc21` [Herbicide B, trifludimoxazin] was tested. Which inhibition at 0.78 ppm (AtPPO1 D448N) did it give?
Its inhibition at 0.78 ppm is 40%.

And the inhibition at 0.78 ppm (AtPPO1 G404A)?
Its inhibition at 0.78 ppm is 12%.

And the inhibition at 0.78 ppm (AtPPO1 Q272T)?
Its inhibition at 0.78 ppm is 28%.

What about the inhibition at 0.78 ppm (AtPPO1 V511N) of the same molecule?
The inhibition at 0.78 ppm was 20%.

Which inhibition at 6.25 ppm (AtPPO1 D448N) does the source give for `CC(C)N(C)S(=O)(=O)NC(=O)c1cc(-n2c(=O)cc(C(F)(F)F)n(C)c2=O)c(F)cc1Cl` [Herbicide E, saflufenacil] here?
Its inhibition at 6.25 ppm is 63%.

And the inhibition at 6.25 ppm (AtPPO1 G404A)?
Its inhibition at 6.25 ppm is 2%.

And the inhibition at 6.25 ppm (AtPPO1 Q272T)?
The inhibition at 6.25 ppm was 64%.

What about the inhibition at 6.25 ppm (AtPPO1 V511N) of the same molecule?
Its inhibition at 6.25 ppm is 48%.
